Source: ChEMBL document CHEMBL1201862, “PubChem BioAssay data set” (2004)
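In this assay, cells in 96-well plates receive the compound at five concentrations for 48 hours. Endpoints are linearly interpolated between the surrounding concentrations. GI50 marks 50% less growth.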 Active and inactive are the calls of the source. No stated cut-off is given here; in the data, active = GI50 up to about 1.1 µM and inactive = higher.

Assays:
Assay in all cases: NCI tumour cell line growth inhibition, 48 h
HT-29 = test system: HT-29
COLO 205 = test system: COLO 205
M14 = test system: M14
CCRF-CEM = test system: CCRF-CEM
UO-31 = test system: UO-31
SK-MEL-2 = test system: SK-MEL-2
UACC-62 = test system: UACC-62
T47D = test system: T47D
TK-10 = test system: TK-10
OVCAR-4 = test system: OVCAR-4
SK-OV-3 = test system: SK-OV-3
NCI-H522 = test system: NCI-H522
SW-620 = test system: SW-620
SNB-19 = test system: SNB-19
HCT-15 = test system: HCT-15
MCF7 = test system: MCF7
NCI-H226 = test system: NCI-H226
ACHN = test system: ACHN
MDA-N = test system: MDA-N
SF-295 = test system: SF-295
CAKI-1 = test system: CAKI-1
SK-MEL-28 = test system: SK-MEL-28
SN12C = test system: SN12C
LOX IMVI = test system: LOX IMVI
HOP-92 = test system: HOP-92
KM12 = test system: KM12
SK-MEL-5 = test system: SK-MEL-5
MDA-MB-435 = test system: MDA-MB-435
PC-3 = test system: PC-3
OVCAR-8 = test system: OVCAR-8
Hs-578T = test system: Hs-578T
HOP-62 = test system: HOP-62
NCI-H23 = test system: NCI-H23
Malme-3M = test system: Malme-3M
U-251 = test system: U-251
DU-145 = test system: DU-145
HCC 2998 = test system: HCC 2998
786-0 = test system: 786-0
MDA-MB-231 = test system: MDA-MB-231
RPMI-8226 = test system: RPMI-8226
K562 = test system: K562
EKVX = test system: EKVX
BT-549 = test system: BT-549
IGROV-1 = test system: IGROV-1
SR = test system: SR
SNB-75 = test system: SNB-75
NCI-H460 = test system: NCI-H460
UACC-257 = test system: UACC-257
MOLT-4 = test system: MOLT-4
A498 = test system: A498
OVCAR-3 = test system: OVCAR-3
HCT-116 = test system: HCT-116
SF-539 = test system: SF-539
OVCAR-5 = test system: OVCAR-5
SF-268 = test system: SF-268
A549 = test system: A549
RXF 393 = test system: RXF 393
NCI/ADR-RES = test system: NCI/ADR-RES
HL-60 = test system: HL-60

Measured: GI50

C=CC1(C)CCC2C(=CCC3C(C)(COC4OC(C(=O)O)C(O)C(O)C4O)C(O)CCC23C)C1.C=CC1(C)CCC2C(=CCC3C2(C)CC(O)C(O)C3(C)COC2OC(C(=O)O)C(O)C(O)C2O)C1 (stereo unspecified)
inactive: HT-29 > 100 µM | COLO 205 > 100 µM | M14 > 100 µM | CCRF-CEM 19.4 µM | UO-31 > 100 µM | SK-MEL-2 > 100 µM | UACC-62 > 100 µM | T47D > 100 µM | TK-10 46.1 µM | OVCAR-4 > 100 µM | SK-OV-3 > 100 µM | NCI-H522 > 100 µM | SW-620 > 100 µM | SNB-19 > 100 µM | MCF7 71 µM | NCI-H226 > 100 µM | ACHN > 100 µM | MDA-N > 100 µM | SF-295 70.1 µM | CAKI-1 > 100 µM | SK-MEL-28 > 100 µM | SN12C > 100 µM | LOX IMVI > 100 µM | HOP-92 > 100 µM | KM12 > 100 µM | SK-MEL-5 > 100 µM | MDA-MB-435 > 100 µM | PC-3 80.4 µM | OVCAR-8 > 100 µM | Hs-578T > 100 µM | HOP-62 > 100 µM | NCI-H23 > 100 µM | Malme-3M > 100 µM | U-251 > 100 µM | DU-145 > 100 µM | HCC 2998 > 100 µM | 786-0 > 100 µM | MDA-MB-231 > 100 µM | RPMI-8226 > 100 µM | K562 54.5 µM | EKVX > 100 µM | BT-549 > 100 µM | IGROV-1 > 100 µM | SR 44.6 µM | SNB-75 > 100 µM | NCI-H460 > 100 µM | UACC-257 83.4 µM | MOLT-4 13.3 µM | A498 > 100 µM | OVCAR-3 > 100 µM | HCT-116 > 100 µM | SF-539 > 100 µM | OVCAR-5 > 100 µM | SF-268 > 100 µM | A549 > 100 µM | RXF 393 > 100 µM
> 100 µM: HCT-15

COC(=O)CC1C2(C)C3=C(C)C(c4ccoc4)CC3OC2C2OC(=O)C3(C)C=CC(=O)C1(C)C23 (stereo unspecified)
active: HT-29 0.839 µM | CCRF-CEM 0.317 µM | NCI-H522 0.575 µM | MCF7 0.578 µM | MDA-N 0.385 µM | CAKI-1 0.841 µM | SN12C 0.859 µM | LOX IMVI 0.986 µM | HL-60 0.372 µM | MDA-MB-435 0.656 µM | OVCAR-8 1.02 µM | Malme-3M 1.02 µM | DU-145 0.76 µM | 786-0 0.869 µM | RPMI-8226 0.34 µM | K562 0.474 µM | BT-549 0.9 µM | IGROV-1 0.953 µM | MOLT-4 0.455 µM | HCT-116 0.889 µM | SF-539 0.869 µM
0.67 µM: HCT-15
inactive: COLO 205 1.3 µM | M14 1.32 µM | UO-31 1.19 µM | SK-MEL-2 1.64 µM | UACC-62 1.46 µM | T47D 1.38 µM | TK-10 2.28 µM | OVCAR-4 2.25 µM | SK-OV-3 4.11 µM | SW-620 1.33 µM | SNB-19 2.25 µM | NCI-H226 2.13 µM | ACHN 1.2 µM | SF-295 3.22 µM | SK-MEL-28 1.16 µM | HOP-92 1.82 µM | KM12 1.71 µM | SK-MEL-5 1.6 µM | PC-3 1.18 µM | Hs-578T 3.5 µM | HOP-62 3.28 µM | NCI-H23 1.57 µM | U-251 1.48 µM | HCC 2998 1.41 µM | MDA-MB-231 1.22 µM | EKVX 1.36 µM | SNB-75 3.01 µM | NCI-H460 1.15 µM | UACC-257 1.95 µM | NCI/ADR-RES 2.04 µM | A498 1.94 µM | OVCAR-3 1.35 µM | OVCAR-5 2.3 µM | SF-268 2.07 µM | A549 2.83 µM | RXF 393 1.3 µM

COc1cc2c[n+](C)c3c4ccccc4ccc3c2cc1OC
active: COLO 205 0.991 µM | NCI-H522 0.302 µM | KM12 0.452 µM | U-251 0.726 µM | MOLT-4 0.422 µM | SF-268 0.224 µM | A549 0.845 µM
> 100 µM: HCT-15
inactive: HT-29 5.4 µM | M14 18.1 µM | CCRF-CEM 6.5 µM | UO-31 > 75.5 µM | SK-MEL-2 5.69 µM | UACC-62 4.6 µM | T47D 2.06 µM | TK-10 26.7 µM | OVCAR-4 9.4 µM | SK-OV-3 6.08 µM | SW-620 1.95 µM | SNB-19 2.44 µM | MCF7 3.66 µM | NCI-H226 2.94 µM | ACHN 35.9 µM | MDA-N 4.45 µM | SF-295 16.9 µM | CAKI-1 55.3 µM | SK-MEL-28 3.42 µM | SN12C 1.32 µM | LOX IMVI 12.9 µM | SK-MEL-5 2.87 µM | MDA-MB-435 3.83 µM | PC-3 4.89 µM | OVCAR-8 2.71 µM | Hs-578T 2.51 µM | HOP-62 18.6 µM | NCI-H23 2.6 µM | Malme-3M 1.55 µM | DU-145 3.8 µM | HCC 2998 4.81 µM | 786-0 8.65 µM | MDA-MB-231 5.05 µM | RPMI-8226 3.05 µM | K562 1.4 µM | EKVX 2.54 µM | BT-549 2.92 µM | SNB-75 5.89 µM | NCI-H460 10 µM | UACC-257 3.73 µM | NCI/ADR-RES > 100 µM | A498 37.4 µM | OVCAR-3 6.05 µM | HCT-116 3.95 µM | SF-539 6.17 µM | OVCAR-5 26.7 µM | RXF 393 14.6 µM
